Data as given in patent US20250326748A1, “COMPOUNDS AND METHODS FOR MODULATING SPLICING” (REMIX THERAPEUTICS INC., priority 2022, published 2025).
Read-outs that look alike come from different tables or passages of the source.

Experiments:
MYB mRNA = assay: Splicing RT-qPCR assay, MYB canonical (CJ) and alternative (AJ) junction mRNA; type: cell-based, human; details: Homo sapiens; for IC50: canonical junction mRNA; for AC50: alternative junction mRNA, read-out: MYB AJ (AC50, increase in AJ mRNA)
Method in brief: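 A673 or K562 cells were treated for 24 h at 37 °C with an 11-point 3-fold compound dilution series (top final 10 uM, DMSO ≤0.25%). Lysates then went to one-step TaqMan RT-qPCR quantifying canonical (CJ) and alternative-exon (AJ) junction transcripts, normalized to a housekeeping gene.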

HiBiT-tagged MYB protein = assay: HiBiT protein abundance assay, MYB (K562 HiBiT knock-in); type: cell-based, human; details: HiBiT knock-in cells, 24 hours
Method in brief: (§1)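 Endogenously HiBiT-tagged K562 knock-in lines treated 24 h at 37 °C with 10-point 3-fold dilutions (top 10 μM final, DMSO ≤0.25%) in IMDM+1% FBS. Lytic Nano-Glo luminescence normalized to DMSO and unmodified K562 controls; four-parameter fit gives 50%-abundance concentration (IC50).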

HiBiT-tagged HTT protein = assay: HiBiT protein abundance assay, HTT (K562 HiBiT knock-in); type: cell-based, human; details: HiBiT knock-in cells, 24 hours
Method in brief: as §1

Target C = assay: HiBiT protein abundance assay, Target C (K562 HiBiT knock-in); type: cell-based, human; details: HiBiT knock-in cells, 24 hours
Method in brief: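 K562 HiBiT knock-in cells (10000/well) in IMDM + 1% FBS were treated for 24 h at 37° C. with a 10-point 3-fold dilution series (top 10 μM final), with DMSO ≤0.25%. Unmodified K562 served as baseline. HiBiT lytic luminescence was normalized to controls, and IC50 was interpolated at 50% from a four-parameter fit.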

K562 cells = assay: Cell viability, Cell Titer Glo 2.0 assay, K562; details: 72 hours
[1] = qPCR panel, read-out: MYB CJ (decrease in CJ mRNA levels, IC50)
[2] = RT-qPCR, A673 or K562 cells, 24 hours treatment
[3] = RT-qPCR, A673 or K562 cells, 24 hours treatment, read-out: MYB CJ (IC50, decrease in CJ mRNA)

Structure (SMILES) | IC50 (MYB mRNA; [1]) | AC50 (MYB mRNA; [2]) | IC50 (MYB mRNA; [3]) | IC50 (HiBiT-tagged MYB protein) | IC50 (HiBiT-tagged HTT protein) | IC50 (Target C) | Effect on Cell Viability, K562 (K562 cells)
Cn1cc2cc(-c3ccc4cc(N5CC[C@H](NCC6CC6)C5)cnc4n3)c(O)cc2n1 [Compound 314] | 100 to 1000 nM | 100 to 1000 nM | 100 to 1000 nM | 100 to 1000 nM | 100 to 1000 nM | 100 to 1000 nM | B (100-1000 nM)
CN(C)C1CCN(c2cnc3nc(-c4cc5cn(C)nc5cc4O)ccc3c2)CC1 [Compound 316] | 100 to 1000 nM | 100 to 1000 nM | 100 to 1000 nM | 100 to 1000 nM | 1000 to 10000 nM | 1000 to 10000 nM | B (100-1000 nM)
CCN[C@@H]1CCN(c2cnc3nc(-c4cc5cn(C)nc5cc4O)cc(Cl)c3c2)C1 [Compound 317] | < 100 nM | < 100 nM | < 100 nM | < 100 nM | < 100 nM | < 100 nM | A (<100 nM)
CCN[C@H]1CCN(c2cnc3nc(-c4cc5cn(C)nc5cc4O)cc(Cl)c3c2)C1 [Compound 318] | < 100 nM | < 100 nM | < 100 nM | < 100 nM | 100 to 1000 nM | 100 to 1000 nM | A (<100 nM)
C[C@@H]1CN(c2cnc3nc(-c4ccc5nn(C)cc5c4)cc(Cl)c3c2)C[C@H](C)N1 [Compound 320, 4-chloro-6-[(3R,5S)-3,5-dimethylpiperazin-1-yl]-2-(2-methylindazol-5-yl)-1,8-naphthyridine] | 1000 to 10000 nM | 1000 to 10000 nM | 1000 to 10000 nM | 1000 to 10000 nM | 1000 to 10000 nM | > 10000 nM | C (1000-9999 nM)
C[C@@H]1CN(c2cnc3nc(-c4cc(C#N)c5nn(C)cc5c4)cc(Cl)c3c2)C[C@H](C)N1 [Compound 325, 5-(4-chloro-6-((3R,5S)-3,5-dimethylpiperazin-1-yl)-1,8-naphthyridin-2-yl)-2-methyl-2H-indazole-7-carbonitrile 2,2,2-trifluoroacetate] | 100 to 1000 nM | 1000 to 10000 nM | 100 to 1000 nM | 100 to 1000 nM | 1000 to 10000 nM | > 10000 nM | C (1000-9999 nM)
Cc1cn2nc(-c3ccc4cc(N5C[C@@H](C)N[C@@H](C)C5)cnc4n3)cc(C)c2n1 [Compound 330] | 100 to 1000 nM | 100 to 1000 nM | 100 to 1000 nM | 100 to 1000 nM | 100 to 1000 nM | 100 to 1000 nM | B (100-1000 nM)
Cc1cn2nc(-c3cc(Cl)c4cc(N5C[C@@H](C)N[C@@H](C)C5)cnc4n3)cc(C)c2n1 [Compound 335, 4-chloro-2-{2,8-dimethylimidazo[1,2-b]478pyridazine-6-yl}-6-[(3R,5S)-3,5-dimethylpiperazin-1-yl]-1,8-naphthyridine] | 100 to 1000 nM | 100 to 1000 nM | 100 to 1000 nM | 100 to 1000 nM | 100 to 1000 nM | 1000 to 10000 nM | B (100-1000 nM)
Cc1cn2nc(-c3cc(Cl)c4cc(N5C[C@H](C)N[C@@H](C)C5)cnc4n3)cc(C)c2n1 [Compound 336] | < 100 nM | < 100 nM | < 100 nM | < 100 nM | 100 to 1000 nM | 100 to 1000 nM | B (100-1000 nM)
CN[C@H]1CCN(c2cnc3nc(-c4cc(C)c5nc(C)cn5n4)cc(Cl)c3c2)C1 [Compound 340] | < 100 nM | 100 to 1000 nM | < 100 nM | < 100 nM | < 100 nM | 100 to 1000 nM | B (100-1000 nM)
CN[C@@H]1CCN(c2cnc3nc(-c4cc(C)c5nc(C)cn5n4)cc(Cl)c3c2)C1 [Compound 341] | < 100 nM | < 100 nM | < 100 nM | < 100 nM | < 100 nM | < 100 nM | A (<100 nM)
